Broadly, the inhibition is the relative decrease from the control value, in per cent. A lower inhibition goes with little suppression.

The values that follow come from ChEMBL document CHEMBL4052711, “Synthesis of 4- and 5-arylthiazolinethiones as inhibitors of indoleamine 2,3-dioxygenase” (Bioorg Med Chem Lett, 2017).

Experiment [1] addresses T1, Indoleamine 2,3-dioxygenase 1 (Homo sapiens, UniProt P14902). The experiment is described as follows: Inhibition of human IDO1 at 100 uM pre-incubated for 10 mins before L-Trp as substrate addition and measured after 30 mins by colorimetry.
Target sequence in this assay (P14902 whole entry, looked up): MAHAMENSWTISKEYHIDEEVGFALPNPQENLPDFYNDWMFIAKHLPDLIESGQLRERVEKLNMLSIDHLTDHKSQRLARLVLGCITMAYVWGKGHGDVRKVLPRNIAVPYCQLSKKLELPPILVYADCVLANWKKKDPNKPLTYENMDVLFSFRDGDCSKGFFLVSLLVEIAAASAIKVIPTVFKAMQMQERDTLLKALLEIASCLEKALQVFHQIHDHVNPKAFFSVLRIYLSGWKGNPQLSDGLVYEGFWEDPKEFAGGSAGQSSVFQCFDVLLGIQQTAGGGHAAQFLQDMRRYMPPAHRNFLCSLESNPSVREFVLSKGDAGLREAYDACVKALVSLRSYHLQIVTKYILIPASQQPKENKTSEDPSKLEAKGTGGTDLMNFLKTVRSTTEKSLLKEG
In experiment [2] the target is T1, Indoleamine 2,3-dioxygenase 1. As to the kind of experiment: Inhibition of human IDO1 at 10 uM pre-incubated for 10 mins before L-Trp as substrate addition and measured after 30 mins by colorimetry.
Target sequence in this assay (P14902 whole entry, looked up): as above
Experiment [3] has the same target. The experiment is described as follows: Inhibition of human IDO1 pre-incubated for 10 mins before L-Trp as substrate addition and measured after 30 mins by colorimetry.
Target sequence in this assay (P14902 whole entry): as the sequence (P14902 whole entry, looked up) above

Consider `S=c1[nH]c(-c2cccnc2)cs1`, for which the inhibition in experiment [1] worked out at 48%.

On to `S=c1[nH]c(-c2cccc(Cl)c2)cs1`, for which the inhibition in experiment [1] was determined as 40%. The same measure, in the same setting: under `N#Cc1ccc(-c2csc(=S)[nH]2)cc1` stands 8%; under `OCc1cccc(-c2csc(=S)[nH]2)c1`, 16%; under `S=c1[nH]cc(-c2cccc(Br)c2)s1`, 48%. Same read-out and setting: under `O=C(O)c1ccccc1-c1csc(=S)[nH]1` stands 8%.

For `S=c1[nH]cc(-c2ccccc2)s1`, the inhibition in experiment [1] was determined as 16%.

`Sc1nc(-c2ccccc2)cs1`: the inhibition in experiment [1] was 76%; in experiment [2], 35%.

For the compound `Sc1nc(-c2ccc(Cl)cc2)cs1`, the IC50 in experiment [3] (read-out: IC50) was 2.6 µM; in experiment [3] (read-out: pIC50 (converted)), 2.86 µM. For the same compound, the inhibition stood at 95% in experiment [1] and 79% in experiment [2]. In experiment [1], `S=c1[nH]c(-c2cccc(Br)c2)cs1` gave an inhibition of 81%. On the same count and under the same terms, to `Oc1nc(-c2ccccc2)cs1` belongs 15%; to `Fc1ccccc1-c1csc(=S)[nH]1`, 77%.

Regarding `COc1ccccc1-c1csc(=S)[nH]1`, in experiment [1], the inhibition came out at 53%. On the same count and under the same terms, to `Fc1ccccc1-c1c[nH]c(=S)s1` belongs 29%; to `S=c1[nH]c(-c2ccncc2)cs1`, 21%; to `FC(F)(F)c1ccc(-c2csc(=S)[nH]2)cc1`, 37%. On to `Brc1nc(-c2ccccc2)cs1`, for which the inhibition in experiment [1] was 12%. Same read-out and setting: to `Fc1ccc(-c2csc(S)n2)cc1` belongs 72%; to `Clc1nc(-c2ccccc2)cs1`, 0.5%. As to `S=c1[nH]c(-c2ccc(Br)cc2)cs1`, the IC50 in experiment [3] (read-out: IC50) worked out at 3.4 µM. Moreover, the inhibition worked out at 100% in experiment [1] and 88% in experiment [2].

On to `Nc1nc(-c2ccccc2)cs1`, for which the inhibition in experiment [1] is 13%. For `Cc1ccc(-c2csc(S)n2)cc1`, in experiment [3] (read-out: IC50), the IC50 is 5.9 µM. For the same compound, the inhibition was 90% in experiment [1] and 39% in experiment [2]. On to `COc1ccc(-c2c[nH]c(=S)s2)cc1`, for which, in experiment [1], the inhibition amounted to 0%.

Take `Cc1ccc(-c2c[nH]c(=S)s2)cc1`: the inhibition in experiment [1] was 15%. The same measure, in the same setting: to `COc1ccccc1-c1c[nH]c(=S)s1` belongs 12%; to `Fc1cccc(-c2csc(=S)[nH]2)c1`, 28%.

Regarding `COc1ccc(-c2csc(=S)[nH]2)cc1`, in experiment [1], the inhibition amounted to 68%.
